Measurements from patent US5219867A, “Platelet aggregation inhibitory agents” (priority 1992, dated 1993).
Counter-ions that a name gives are not always drawn. Like-named read-outs stand apart in the source and are kept apart here.

Tests used:
Type in all cases: cell-based
human blood platelets = experiment: In vitro inhibition of ADP-induced human platelet aggregation (platelet-rich plasma, aggregometer)
Method: Procedure for Determining In Vitro Platelet Aggregation-Inhibitory Activity. Adenosine diphosphate (ADP) was used to induce platelet aggregation and was utilized as the sodium salt. A 10 mM stock solution was prepared fresh before each use in modified Tyrode's buffer and working dilutions were prepared with modified Tyrode's buffer immediately prior to use. The buffer contained NaCl (137.00 mM), KCl (2.70 mM), NaHCO3 (11.90 mM), NaH2 PO4 H2 O (0.36 mM) and glucose (5.60 mM) in redistilled water. Adjustment to pH 7.4 was effected by addition of 1N HCl.
The blood was transferred into plastic centrifuge tubes containing 3.2% sodium citrate (blood/citrate ratio 8:1) and centrifuged at 120Xg for 15 minutes at 23° C., yielding platelet-rich plasma (PRP); platelet-poor-plasma (PPP) was obtained by centrifugation of citrated whole blood at 1,100Xg for 15 min at 23° C. The platelet count of PRP was determined and adjusted to a final count of 300,000 platelet per mm^3 by dilution with autologous PPP. […] The plasma so obtained was transferred using a 1.0 ml Centaur pipette into a 50 ml polyethylene centrifuge tube. In order to maintain plasma pH in the appropriate range, the air in the tubes are displaced gently (2 minutes) with a 5% (CO2 -95% air (v/v) mixture and the tube capped. The plasma was maintained at 37° C. in a water bath until used in the aggregation experiments.
Assays of platelet aggregation were performed at least in duplicate, using plasma acquired from different donors, employing a method developed by Quintana, et al. (Quintana, et al., Relationships Between the Chemical Constitution of Carbamoylpiperidines and Related Compounds, and Their Inhibition of ADP-Induced Human Blood Platelet Aggregation, Thromb. Res. Vol. 22, Pages 665-680, 1981); Quintana, et al., Effects of Ethanol and of Other Factors on ADP-Induced Aggregation of Human Blood Platelets in Vitro, Thromb. Res., Vol. 20, Pages 405-415, 1980) (cf. Born, Nature, Vol. 194, Pages 927-929, 1962) and Mustard, et al., J. Lab. Clin. Med., Vol. 64, Pages 548-559, 1964).
Initially, in each experiment, 0.45-ml aliquots of PRP were placed in siliconized cuvettes and stirred (1,100 rpm) in the aggregometer at 37° C. to ascertain the absence of spontaneous aggregation. Appropriate ADP solutions (50 μl) were subsequently injected using a Hamilton microliter syringe to determine the minimal concentration eliciting maximal biphasic aggregation. […] In each case, the concentration of ADP so determined was used in eliciting aggregation throughout each specific set of aggregometric evaluations.
0.5 μl of a solution of the evaluant compound in redistilled 95% ethanol was injected into a stirred ([…]) 0.4-ml aliquot of plasma in a siliconized cuvette in the aggregometer-well (37° C). After 15 seconds, the cuvette was transferred to an incubator (also at 37° C.) and the contents held at this temperature, without stirring, until 2 minutes postinjection. The cuvette was then returned to the aggregometer-well, a base-line being recorded for 2 minutes to detect any spontaneous aggregation. At exactly 4 minutes after injection of the evaluant solution, 50 μl of the appropriate ADP solution was injected and aggregation recorded for 5.5 minutes. Evaluants were studied at least 4 different concentrations. Control experiments (ethanol in a final concentration of 0.095% v/v) were performed in conditions parallel with those involving the respective evaluants, and were initiated either 1 minute prior to or 1 minute after the start of experiments employing the test compounds. This permitted injections to be made precisely at the specified times.

human platelets = experiment: Inhibition of collagen-induced aggregation, washed aequorin-loaded platelet suspension; settings: Homo sapiens, Platelet; collagen-induced aggregation (n = 4); HEPES-buffered saline, 1.0 mM CaCl2; read-out: Ia50 ± S.E. Collagen-induced
Method: (§1) Procedure for Cytosolic Ionized Calcium Determination. The basic procedure of Yamaguchi, et al. (Thromb. Res., Vol. 44, Pages 165-174, 1986) was followed. Blood was collected from six blood donors, aged 24-38 years, who had fasted overnight and affirmed abstinence from alcohol, caffeine and medications of any kind for a period of at least one week prior to donation. […] Platelets were collected (800 g, 15 min), resuspended in and washed (800 g, 15 min) with HEPES-buffered saline (140 mM NaCl, 2.7 mM KCl, 0.1% bovine albumin, 0.5% glucose, 3.8 mM HEPES, pH 7.6) with EGTA (5 mM) and PGE1 (1 μM). The platelet pellet was resuspended in 90 μl of the same buffer and added to 20μl of 3 mg/ml aequorin solution in a 1.5 ml Eppendorf centrifuge tube. Six 1 μl aliquots of DMSO were added at 90 second intervals with brief, gentle mixing on a Vortex mixer and the platelet suspension was incubated 2 minutes after the last addition. One ml of HEPES-buffered saline was added, gently mixed, and again incubated for 2 minutes. The platelets were pelleted (1000 g, 30 sec), resuspended in HEPES-buffered saline to which was added either 1 mM Mg Cl2, (calcium-free buffer) or 1 mM Mg Cl2 and 1 mM Ca Cl2 (calcium buffer), depending on the experiment. The platelet count was adjusted to 3-4×10^5 platelets/μl.
(§2) The Platelet Ionized Calcium Aggregometer (Chrono-Log Corp., Ltd., Havertown, Pa.) was used to obtain simultaneous aggregation and luminescence data under the following experimental conditions: (1) platelet suspension, 1 ml, was equilibrated at 37° C. with stirring at 1100 rpm; (2) 100 μl (1.2 μg) of fibrinogen was added; (3) the vehicle (95% ethanol) or the test compound in vehicle was added; (4) when needed, 10 μl of the desired concentration of EGTA was added 30 seconds prior to addition of the agonist; then (5) the agonist (Collagen, 5 μg or 20 μg) was added and the time noted. At one minute after addition of the agonist in Channel 1, a platelet sample containing fibrinogen in Channel 2 was lysed with 10 μl of a 1:1 solution of Triton X-100 (final concentration 0.005%) 10 mM CaCl2 (final concentration 0.5 mM). Treated and control […] data were corrected for time dependent decay of fluorescence using data from the untreated lysed controls.
(§3) Normally 4 compound-treated samples (at 4 different concentrations) interspersed with 3 control samples were evaluated at 4.5 minute intervals starting 18-23 minutes after the DMSO treatment. The Ia50 values were calculated as described earlier. The compound concentrations effecting 50% inhibition (Ica50) of collagen-induced cytosolic ionized calcium values was determined by linear regression analysis.
Compounds I-rac, (+)-I,(IC) and (-)-I(IA) were evaluated. The Ia50 (collagen-induced aggregation) and Ica50 (compound concentration required to inhibit by 50% the collagen-induced rise in cytosolic ionized calcium)values determined with platelet suspensions in HEPES-buffered saline containing 1.0 mM CaCl2 were as follows: […]

[1] = test system: cytosolic ionized calcium in human platelets; experiment: Inhibition of collagen-induced rise in cytosolic ionized calcium (aequorin luminescence); settings: collagen-induced, 1mM [Ca2+]o (n = 4), read-out: Ica50 ± S.E. Collagen-induced (50% inhibition of collagen-induced rise in cytosolic ionized calcium)
Method: as §1, §2, §3
Compounds I-rac, (+)-I,(IC) and (-)-I(IA) were evaluated. The Ia50 (collagen-induced aggregation) and Ica50 (compound concentration required to inhibit by 50% the collagen-induced rise in cytosolic ionized calcium)values determined with platelet suspensions in HEPES-buffered saline containing 1.0 mM CaCl2 were as follows:
Collagen-stimulation of platelets suspended in media containing 1.0 mM of Ca^2+ (FIG. 13) or 1.0 mM (FIG. 14A) or 2.0 mM (FIG. 14B) EGTA (a calcium chelator) gave […] cytosolic ionized calcium peak (aequorin-indicated luminescence). Contrarily, two phases of Ca^2+ mobilization were observed when aequorin-loaded human platelets suspended in a medium containing 0.1 mM EGTA were stimulated with collagen (FIG. 14, designation D). The first corresponded to platelet shape change and the second peak to aggregation. […] The platelet suspension (1.0 ml) was pre-incubated with 1.0 μl of (A) 95% ethanol, (B) a solution of Compound I (14.59 μM) in 95% ethanol, or (C) a solution of Compound I (23.87 μM) in 95% ethanol. Collagen (20 μg) was added at time indicated by the arrows. Luminescence was again recorded at a gain of 0.5. […] Accordingly, the stereo-selective inhibitory properties of the compounds of the present invention appear to be mediated through the inhibition of [Ca^2+ ].

[2] = Homo sapiens, Platelet, racemic compounds, ADP-induced, read-out: IC50 (compound concentration which inhibits ADP-induced platelet aggregation by 50%) ± S.E.
[3] = Homo sapiens, Platelet, read-out: IC50 (compound concentration which inhibits ADP-induced platelet aggregation by 50%) ± S.E., racemic compounds, ADP-induced
[4] = Homo sapiens, Platelet, read-out: Ia50 ± S.E. ADP-induced, table 4, ADP-induced, 5 to 7 individual determinations
[5] = Homo sapiens, Platelet, read-out: Ia50 (compound concentrations affecting 50% inhibition of aggregation) ± S.E., Table II, ADP-induced, n = 5 for (0)I and 6 for all others
[6] = Homo sapiens, Platelet, read-out: Ia50 ± S.E. ADP-Induced, table 3, ADP-induced (n = 5-6)

O=C(C1CCCN(Cc2ccc(CN3CCCC(C(=O)N(Cc4ccccc4)Cc4ccccc4)C3)cc2)C1)N(Cc1ccccc1)Cc1ccccc1 (racemic) [Compound 8, α,α'-Bis[3-(N,N-dibenzylcarbamoyl)piperidino] p-xYlene dihydrobromide]
IC50 (human blood platelets; [2]): 303 ± 60.8 µM

CN(Cc1ccccc1)C(=O)C1CCCN(Cc2ccc(CN3CCCC(C(=O)N(C)Cc4ccccc4)C3)cc2)C1 (racemic) [Compound 13c, α,α'-Bis[3-(N-benzyl-N-methylcarbamoyl)piperidino]p-xylene]
IC50 (human blood platelets; [3]): 27.3 ± 3.2 µM | IC50 (human blood platelets; [4]): 27.3 ± 3.23 µM

CN(Cc1ccccc1)C(=O)[C@@H]1CCCN(Cc2ccc(CN3CCC[C@H](C(=O)N(C)Cc4ccccc4)C3)cc2)C1 [Compound 13c-B]
IC50 (human blood platelets; [4]): 46.9 ± 8.37 µM

O=C(NCc1ccccc1)C1CCCN(Cc2ccc(CN3CCCC(C(=O)NCc4ccccc4)C3)cc2)C1 (racemic) [Compound 5, α,α'-Bis[3-(N-benzylcarbamoyl)piperidino]p-xylene dihydrobromide]
IC50 (human blood platelets; [2]): 53.6 ± 5.3 µM

CCN(CC)C(=O)[C@@H]1CCCN(Cc2ccc(CN3CCC[C@H](C(=O)N(CC)CC)C3)cc2)C1 [IB]
IC50 (human platelets): 65.7 µM | IC50 (human blood platelets; [5]): 41.4 ± 11.8 µM | IC50 (human blood platelets; [6]): 41.4 µM | IC50 ([1]; Homo sapiens, Platelet): 24.3 µM

CCCCN(C)C(=O)C1CCCN(Cc2ccc(CN3CCCC(C(=O)N(C)CCCC)C3)cc2)C1 (stereo not drawn) [Compound 9, α,α'-Bis[3-(N-methyle-N-butylcarbamoyl)piperidino] p-xylene dihydrobromide]
IC50 (human blood platelets; [3]): 22.1 ± 5.5 µM

CN(C)CCCN1c2ccccc2Sc2ccc(Cl)cc21 [Chlorpromazine, reference compound]
IC50 (human blood platelets; [5]): 156 ± 25.5 µM

CCCN(Cc1ccccc1)C(=O)C1CCCN(Cc2ccc(CN3CCCC(C(=O)N(CCC)Cc4ccccc4)C3)cc2)C1 (racemic) [Compound 7, α,α'-Bis[3-(N-benzyl-N-propylcarbamoyl)piperidino]p-xylene dihydrobromide]
IC50 (human blood platelets; [2]): 72.9 ± 20.8 µM

CCN(CC)CC1CCCN(Cc2ccc(CN3CCCC(CN(CC)CC)C3)cc2)C1 (racemic) [Compound 4, α,α'-Bis[3-(N,N-diethylaminomethyl)-piperidino]-p-xylene tetrahydrochloride]
IC50 (human blood platelets; [2]): 156 ± 460 µM | IC50 (human blood platelets; Homo sapiens, Platelet, racemic compounds, C = IC50 × 10^-3, read-out: Log1/C (converted)): 1570 µM

CN1CCN(CCCN2c3ccccc3Sc3ccc(C(F)(F)F)cc32)CC1 [Trifluoperazine, reference compound]
IC50 (human blood platelets; Homo sapiens, Platelet, Table II, ADP-induced, n = 5 for (0)I and 6 for all others, read-out: Ia50 (compound concentrations affecting 50% inhibition of aggregation) ± S.E.): 202 ± 21.9 µM

CCN(Cc1ccccc1)C(=O)C1CCCN(Cc2ccc(CN3CCCC(C(=O)N(CC)Cc4ccccc4)C3)cc2)C1 (racemic) [Compound 6, α,α'-Bis[3-(N-benzyl-N-ethylcarbamoyl)piperidino]-p-xylene dihydrobromide]
IC50 (human blood platelets; [2]): 37.7 ± 4.6 µM

CCN(CC)C(=O)C1CCCN(Cc2ccc(CN3CCCC(C(=O)N(CC)CC)C3)cc2)C1 (single isomer, unassigned) [IA]
IC50 (human platelets): 199 µM | IC50 (human blood platelets; [5]): 233 ± 52.1 µM | IC50 (human blood platelets; [6]): 233 µM | IC50 ([1]; listed as IA (-)-I): 171 µM

O=C(C1CCCN(Cc2ccc(CN3CCCC(C(=O)N4CCCCC4)C3)cc2)C1)N1CCCCC1 (racemic) [Compound 10, α,α'-Bis[3-(piperidinocarbonyl)piperidino] p-xylene dihydrobromide]
IC50 (human blood platelets; Homo sapiens, Platelet, table 4, ADP-induced, 5 to 7 individual determinations, read-out: Ia50 ± S.E. ADP-induced): 28.9 ± 8.96 µM

CN(Cc1ccccc1)C(=O)C1CCCN(Cc2ccc(CN3CCCC(C(=O)N(C)Cc4ccccc4)C3)cc2)C1 (single isomer, unassigned) [Compound 13c-A]
IC50 (human blood platelets; read-out: Ia50 ± S.E. ADP-induced, table 4, ADP-induced, 5 to 7 individual determinations, listed as 13c-A(-)): 57.4 ± 6.01 µM

CN(Cc1ccccc1)C(=O)C1CCCN(Cc2ccc(CN3CCCC(C(=O)N(C)Cc4ccccc4)C3)cc2)C1 (single isomer, unassigned) [Compound 13c-C]
IC50 (human blood platelets; read-out: Ia50 ± S.E. ADP-induced, table 4, ADP-induced, 5 to 7 individual determinations, listed as 13c-C(+)): 9.55 ± 1.47 µM
